Here are results for 6 molecules from patent US7144710B2, “Method for detecting inflammation and inflammatory conditions” (Trustees of Dartmouth College, priority 2000, dated 2006).

Where only a bound is given, the exact number is not on record here.

The test system of assay [1] is monocyte CD163 expression. Nature of the assay: CD163 expression on monocytes of cultured PBMCs, staining and flow cytometric analysis. In kind it is cell-based, human. To be noted: for increase of monocyte CD163 expression: PBMCs treated 24 hours, agent alone, 200 nM DEX, vs control media, p<0.01; for CD163 expression of cytokine given in combination with DEX over DEX treatment alone: PBMCs 24 hours. The method, then: To assess whether different cytokines could influence CD163 expression, freshly isolated PBMCs were cultured for 24 hours in the presence of various cytokines, 200 nM DEX (as a positive control for CD163 upregulation), or control media. The cells were then subjected to staining and flow cytometric analysis.
For cytokine treatment studies, isolated PBMCs were suspended in hepes buffered RPMI 1640/0.05% gentamicin/10% FBS at a concentration of 2.0×10^6 to 2.5×10^6 cells/ml and cultured in 96 well plates at 37° C. and 5% CO2 in the presence of various mediators (Table 1). Mononuclear cells were stained for flow cytometric analysis after 24 hours in culture unless otherwise indicated. This enhanced cell recovery because monocytes, which initially adhere to plastic vessels, transiently detach from culture wells at 24–48 hours.
All staining procedures were performed at 4 C. Briefly, cultured PBMCs were incubated with normal human IgG (6 mg/ml) to block Fc receptor-specific binding of mAbs and 30 μg/ml of the isotype control mAb P3 or a saturating amount of mAb MAC2-48 (20 μg/ml) for one hour. Cells were then washed and stained for one hour with 17.5 μg/ml FITC labeled goat F(ab=)2 anti-mouse Ig. The cells were again washed and fixed with 1% methanol free formalin.
Cell fluorescence of monocytes gated using forward and side scatter was analyzed using a Becton Dickenson FACScan (Franklin Lakes, N.J.). Mean fluorescence intensity (MFI) was calculated by subtracting the MFI of the P3 stained mononuclear cells from the MFI of the corresponding Mac 2-48 stained cells.
(In general: A flow cytometer gives signals particle by particle.)

Assay [2] deals with monocyte surface CD163. Nature of the assay: Shedding of monocyte surface CD163 in vitro. Type of assay: cell-based, human. To be noted: for shedding of surface CD163 from cells pre-treated with glucocorticoids plus LPS: subsequent treatment with the agent. The method, then:
Therefore, like PMA, LPS is capable of inducing CD163 shedding. LPS-induced shedding occurred even with monocytes that had been cultured for 48 hours in DEX and thus had 5- to 10-fold higher levels of surface CD163 than freshly isolated monocytes. […] This LPS-conferred resistance to subsequent LPS-induced shedding of CD163 is similar to reported endotoxin pre-conditioning for resistance to subsequent inflammatory insults.

Assay [3] has as its system monocyte surface CD163. To be noted: Droste et al. 1999; blocked by protease inhibitors; cited from earlier work.
Assay [4] concerns soluble CD163 in plasma. Nature of the assay: Soluble CD163 in plasma of healthy volunteers after LPS bolus infusion (ELISA). Type of assay: in vivo, human. To be noted: 4 ng/kg bolus infusion of LPS. The method, then:
In order to provide for use of CD163 as a biomarker of inflammation, a method for detection of CD163 in biological samples such as plasma was developed. The assay of detection is an ELISA assay using a CD163-specific antibody such as MAC2-158 or MAC2-48 as the CD163 capture antibody and the commercially available biotinylated antibody RM3/1 as the CD163 detection antibody. Briefly, plates were coated with purified MAC2-158 or MAC2-48 antibody and incubated overnight at 4 C. After washing, non-specific binding was blocked by adding blocking buffer to each plate well and incubating for 30 minutes at room temperature. […]
In order to more closely mimic the in vivo inflammatory response to infection in a more controlled setting than the cardiac patients described above, healthy volunteers were administered a 4 ng/kg bolus infusion of LPS and monitored the levels of soluble CD163 in plasma. […] Levels of CD163 in plasma were measured using the assay of the present invention. […] Changes in levels of known acute phase proteins, glucocorticoids, and pro- and anti-inflammatory cytokines were also monitored in order to determine if their levels correlated with the appearance of soluble CD163 in plasma. […]
ELISA plates were coated, 100 μl per well, with 5 μg/ml purified MAC2-158 (coating buffer of 0.1 M NaHCO30.5 M NaCl, adjusted to pH 8.4 with HCl). […] The plates were read on a spectrophotometer at […].

Assay [5] relates to CRP, TNFA, IL-6, IL-10, cortisol in plasma. Nature of the assay: Plasma acute phase proteins, glucocorticoids and cytokines of healthy volunteers after LPS bolus infusion. In kind it is in vivo, human. To be noted: post LPS administration. The method, then: In order to more closely mimic the in vivo inflammatory response to infection in a more controlled setting than the cardiac patients described above, healthy volunteers were administered a 4 ng/kg bolus infusion of LPS and monitored the levels of soluble CD163 in plasma. […] Plasma samples were taken at baseline (before administration of LPS), and then at various time points after LPS infusion up to 72 hours after infusion initiation. Levels of CD163 in plasma were measured using the assay of the present invention. […] In the one volunteer where levels had declined at […], levels remained elevated up to 4 hours before returning to baseline levels by 8 hours. Changes in levels of known acute phase proteins, glucocorticoids, and pro- and anti-inflammatory cytokines were also monitored in order to determine if their levels correlated with the appearance of soluble CD163 in plasma. […] Plasma levels of TNFA, IL-6 and IL-10, all known to be produced following LPS infusion, peaked at 1, 2, and 4 hours post LPS administration, respectively. […] Therefore, CD163 acts as an early signaling event in the inflammatory response cascade.

The test system of assay [6] is CD163 expression. Description: Monocytes cultured with LPS and/or DEX, immunofluorescence detection of surface CD163. In kind it is cell-based, human. To be noted: monocytes cultured with LPS alone. The method, then: In addition to testing the effects of cytokines in combination with glucocorticoids on levels of CD163, studies were performed to examine the effects of glucocorticoids in combination with lipopolysaccharide (LPS). […] However, when monocytes were cultured for 48 hours with DEX combined with LPS, their was a synergistic increase in CD163 expression, where the effect of DEX alone was increased by more than 2-fold when LPS treatment was added.

Assay [7] deals with CD163. Nature of the assay: Western blots of monocyte lysates. In kind it is cell-based, human.

Turning to `C[C@@H]1C[C@H]2[C@@H]3CCC4=CC(=O)C=C[C@]4(C)[C@@]3(F)[C@@H](O)C[C@]2(C)[C@@]1(O)C(=O)CO` [DEX], the “increase of monocyte CD163 expression” value in assay [1] was roughly 7 fold.
With `CCCCCCCCCCCCCC(=O)O[C@@H]1[C@@H](C)[C@@]2(O)[C@@H](C=C(CO)C[C@]3(O)C(=O)C(C)=C[C@@H]23)[C@@H]2C(C)(C)[C@]12OC(C)=O` [PMA], in assay [2], the “shedding of surface CD163 from cells pre-treated with glucocorticoids plus LPS” value is on record as “remained sensitive”. In assay [3], the “shedding of surface CD163 from monocytes in culture” value is given as “rapid shedding”.
On to GM-CSF, for which, in assay [1], the “CD163 expression of cytokine given in combination with DEX over DEX treatment alone” value (shortened to “CD163 expression … over DEX treatment alone”) is “does not enhance CD163 expression”.
Regarding lipopolysaccharide [LPS], the “time to shedding of monocyte surface CD163” value in assay [2] (in vitro) was no more than 2 h. The “shedding of surface CD163 from cells pre-treated with glucocorticoids plus LPS” value in assay [2] is recorded as “largely resistant to shedding”. In assay [4], the “increase of soluble CD163 levels in plasma compared to baseline” value is no more than 7 fold. In addition, in assay [5], the “time at which plasma cortisol began to increase” value came out at 4 h, the “time by which plasma CRP increased” value was no more than 8 h, the “time of peak of plasma CRP” value came to 24 h and the “time of peak of plasma IL-6” value turned out to be 2 h. In addition, in assay [5], the “time of peak of plasma IL-10” value worked out at 4 h, the “time of peak of plasma TNFA” value turned out to be 1 h and the “time of peak of plasma cortisol” value amounted to 6 h. Moreover, the “CD163 detected on monocyte surface” value in assay [6] is recorded as “low levels of CD163”.

B1: IL-4: cytokine interleukin-4 (protein, UniProt P05112 25-153, looked up)
Interleukin-4: HKCDITLQEIIKTLNSLTEQKTLCTELTVTDIFAASKNTTEKETFCRAATVLRQFYSHHEKDTRCLGATAQQFHRHKQLIRFLKRLDRNLWGLAGLNSCPVKEANQSTLENFLERLKTIMREKYSKCSS
With B1, in assay [1], the “CD163 expression … over DEX treatment alone” value is given as “does not enhance CD163 expression”.

B2: IL-10: cytokine, originally known as cytokine synthesis inhibitory factor (protein, UniProt P22301 19-178, looked up)
Interleukin-10: SPGQGTQSENSCTHFPGNLPNMLRDLRDAFSRVKTFFQMKDQLDNLLLKESLLEDFKGYLGCQALSEMIQFYLEEVMPQAENQDPDIKAHVNSLGENLKTLRLRLRRCHRFLPCENKSKAVEQVKNAFNKLQEKGIYKAMSEFDIFINYIEAYMTMKIRN
In the case of B2, in assay [1], the “CD163 expression … over DEX treatment alone” value is listed as “significantly increased CD163 expression” and the “increase of monocyte CD163 expression” value is on record as “approximately 4 fold”. The “CD163 expression by western blot” value in assay [7] is reported as “increased expression of CD163”.
